From the NIST ThermoML archive (doi:10.1021/je600554h)

Assay: xn = mol fraction of the nth substance listed
Settings: Liquid; for viscosity: 100 kPa, Capillary tube (Ostwald / Ubbelohde) method; for mass density: 1000 kPa, Vibrating tube method

COC(C)(C)C [2-methoxy-2-methylpropane] + CCCCCCC
Settings | mass density [kg/m3] | viscosity [mPa·s]
273.15 K, x1 = 0.1004 | – | 0.515
273.15 K, x1 = 0.1042 | 705.19 | –
273.15 K, x1 = 0.1998 | – | 0.507
273.15 K, x1 = 0.2146 | 710.4 | –
273.15 K, x1 = 0.3008 | – | 0.494
273.15 K, x1 = 0.3024 | 714.67 | –
273.15 K, x1 = 0.3982 | 719.73 | –
273.15 K, x1 = 0.4024 | – | 0.485
273.15 K, x1 = 0.4996 | 725.44 | –
273.15 K, x1 = 0.5007 | – | 0.476
273.15 K, x1 = 0.5875 | 730.85 | –
273.15 K, x1 = 0.5989 | – | 0.468
273.15 K, x1 = 0.6981 | – | 0.462
273.15 K, x1 = 0.6985 | 738.08 | –
273.15 K, x1 = 0.7887 | – | 0.456
273.15 K, x1 = 0.794 | 744.8 | –
273.15 K, x1 = 0.889 | 752 | –
273.15 K, x1 = 0.898 | – | 0.448
278.15 K, x1 = 0.1004 | – | 0.484
278.15 K, x1 = 0.1042 | 700.96 | –
278.15 K, x1 = 0.1998 | – | 0.474
278.15 K, x1 = 0.2146 | 706.09 | –
278.15 K, x1 = 0.3008 | – | 0.464
278.15 K, x1 = 0.3024 | 710.3 | –
278.15 K, x1 = 0.3982 | 715.27 | –
278.15 K, x1 = 0.4024 | – | 0.456
278.15 K, x1 = 0.4996 | 720.9 | –
278.15 K, x1 = 0.5007 | – | 0.448
278.15 K, x1 = 0.5875 | 726.22 | –
278.15 K, x1 = 0.5989 | – | 0.44
278.15 K, x1 = 0.6981 | – | 0.433
278.15 K, x1 = 0.6985 | 733.34 | –
278.15 K, x1 = 0.7887 | – | 0.427
278.15 K, x1 = 0.794 | 739.96 | –
278.15 K, x1 = 0.889 | 747.05 | –
278.15 K, x1 = 0.898 | – | 0.421
283.15 K, x1 = 0.1004 | – | 0.455
283.15 K, x1 = 0.1042 | 696.72 | –
283.15 K, x1 = 0.1998 | – | 0.446
283.15 K, x1 = 0.2146 | 701.76 | –
283.15 K, x1 = 0.3008 | – | 0.437
283.15 K, x1 = 0.3024 | 705.9 | –
283.15 K, x1 = 0.3982 | 710.79 | –
283.15 K, x1 = 0.4024 | – | 0.429
283.15 K, x1 = 0.4996 | 716.32 | –
283.15 K, x1 = 0.5007 | – | 0.422
283.15 K, x1 = 0.5875 | 721.55 | –
283.15 K, x1 = 0.5989 | – | 0.414
283.15 K, x1 = 0.6981 | – | 0.408
283.15 K, x1 = 0.6985 | 728.56 | –
283.15 K, x1 = 0.7887 | – | 0.403
283.15 K, x1 = 0.794 | 735.08 | –
283.15 K, x1 = 0.889 | 742.07 | –
283.15 K, x1 = 0.898 | – | 0.397
288.15 K, x1 = 0.1004 | – | 0.429
288.15 K, x1 = 0.1042 | 692.45 | –
288.15 K, x1 = 0.1998 | – | 0.421
288.15 K, x1 = 0.2146 | 697.4 | –
288.15 K, x1 = 0.3008 | – | 0.413
288.15 K, x1 = 0.3024 | 701.47 | –
288.15 K, x1 = 0.3982 | 706.28 | –
288.15 K, x1 = 0.4024 | – | 0.405
288.15 K, x1 = 0.4996 | 711.72 | –
288.15 K, x1 = 0.5007 | – | 0.398
288.15 K, x1 = 0.5875 | 716.86 | –
288.15 K, x1 = 0.5989 | – | 0.391
288.15 K, x1 = 0.6981 | – | 0.385
288.15 K, x1 = 0.6985 | 723.76 | –
288.15 K, x1 = 0.7887 | – | 0.38
288.15 K, x1 = 0.794 | 730.17 | –
288.15 K, x1 = 0.889 | 737.04 | –
288.15 K, x1 = 0.898 | – | 0.375
293.15 K, x1 = 0.1004 | – | 0.406
293.15 K, x1 = 0.1042 | 688.15 | –
293.15 K, x1 = 0.1998 | – | 0.398
293.15 K, x1 = 0.2146 | 693.02 | –
293.15 K, x1 = 0.3008 | – | 0.39
293.15 K, x1 = 0.3024 | 697.02 | –
293.15 K, x1 = 0.3982 | 701.73 | –
293.15 K, x1 = 0.4024 | – | 0.383
293.15 K, x1 = 0.4996 | 707.09 | –
293.15 K, x1 = 0.5007 | – | 0.376
293.15 K, x1 = 0.5875 | 712.13 | –
293.15 K, x1 = 0.5989 | – | 0.369
293.15 K, x1 = 0.6981 | – | 0.364
293.15 K, x1 = 0.6985 | 718.92 | –
293.15 K, x1 = 0.7887 | – | 0.359
293.15 K, x1 = 0.794 | 725.22 | –
293.15 K, x1 = 0.889 | 731.98 | –
298.15 K, x1 = 0.1004 | – | 0.384
298.15 K, x1 = 0.1042 | 683.83 | –
298.15 K, x1 = 0.1998 | – | 0.377
298.15 K, x1 = 0.2146 | 688.62 | –
298.15 K, x1 = 0.3008 | – | 0.37
298.15 K, x1 = 0.3024 | 692.54 | –
298.15 K, x1 = 0.3982 | 697.16 | –
298.15 K, x1 = 0.4024 | – | 0.363
298.15 K, x1 = 0.4996 | 702.42 | –
298.15 K, x1 = 0.5007 | – | 0.357
298.15 K, x1 = 0.5875 | 707.37 | –
298.15 K, x1 = 0.6985 | 714.04 | –
298.15 K, x1 = 0.794 | 720.23 | –
298.15 K, x1 = 0.889 | 726.87 | –
303.15 K, x1 = 0.1004 | – | 0.365
303.15 K, x1 = 0.1042 | 679.49 | –
303.15 K, x1 = 0.1998 | – | 0.358
303.15 K, x1 = 0.2146 | 684.18 | –
303.15 K, x1 = 0.3008 | – | 0.351
303.15 K, x1 = 0.3024 | 688.02 | –
303.15 K, x1 = 0.3982 | 692.55 | –
303.15 K, x1 = 0.4024 | – | 0.344
303.15 K, x1 = 0.4996 | 697.72 | –
303.15 K, x1 = 0.5875 | 702.57 | –
303.15 K, x1 = 0.6985 | 709.11 | –
303.15 K, x1 = 0.794 | 715.19 | –
303.15 K, x1 = 0.889 | 721.72 | –
308.15 K, x1 = 0.1004 | – | 0.347
308.15 K, x1 = 0.1042 | 675.12 | –
308.15 K, x1 = 0.1998 | – | 0.34
308.15 K, x1 = 0.2146 | 679.71 | –
308.15 K, x1 = 0.3024 | 683.48 | –
308.15 K, x1 = 0.3982 | 687.91 | –
308.15 K, x1 = 0.4996 | 692.98 | –
308.15 K, x1 = 0.5875 | 697.73 | –
308.15 K, x1 = 0.6985 | 704.14 | –
308.15 K, x1 = 0.794 | 710.11 | –
313.15 K, x1 = 0.1004 | – | 0.33
313.15 K, x1 = 0.1042 | 670.71 | –
313.15 K, x1 = 0.2146 | 675.19 | –
313.15 K, x1 = 0.3024 | 678.89 | –
313.15 K, x1 = 0.3982 | 683.23 | –
313.15 K, x1 = 0.4996 | 688.2 | –
313.15 K, x1 = 0.5875 | 692.85 | –
313.15 K, x1 = 0.6985 | 699.12 | –
318.15 K, x1 = 0.1042 | 666.28 | –
318.15 K, x1 = 0.2146 | 670.65 | –
318.15 K, x1 = 0.3024 | 674.26 | –
318.15 K, x1 = 0.3982 | 678.51 | –
318.15 K, x1 = 0.4996 | 683.38 | –
318.15 K, x1 = 0.5875 | 687.92 | –
323.15 K, x1 = 0.1042 | 661.8 | –
323.15 K, x1 = 0.2146 | 666.08 | –
323.15 K, x1 = 0.3024 | 669.6 | –
323.15 K, x1 = 0.3982 | 673.75 | –
323.15 K, x1 = 0.4996 | 678.5 | –
328.15 K, x1 = 0.1042 | 657.27 | –
328.15 K, x1 = 0.2146 | 661.46 | –
328.15 K, x1 = 0.3024 | 664.89 | –
328.15 K, x1 = 0.3982 | 668.93 | –
333.15 K, x1 = 0.1042 | 652.74 | –
333.15 K, x1 = 0.2146 | 656.77 | –
333.15 K, x1 = 0.3024 | 660.13 | –
338.16 K, x1 = 0.1042 | 648.13 | –
338.16 K, x1 = 0.2146 | 652.07 | –
343.16 K, x1 = 0.1042 | 643.27 | –
